Reference: US20230413819A1, “METHODS FOR CONTROLLING FLEA AND TICK INFESTATIONS IN A MAMMAL” (In the Bowl Animal Health, Inc., priority 2021, published 2023)
“And” between values parts separate entries of the source, which are not always exact repeats. Equal entries are not always repeated. Where two headings read alike, the source gives them in different places.

Experiments:
Format in all cases: in vivo, dogs
[1] = Plasma concentration of mivorilaner, 0.75 mg/kg daily oral (Examples 4 and 10)
Protocol: Each dog in the treatment group is to receive by mouth a liquid formulation of isoxazoline. The dosage of 0.75 mg/kg is to be administered to the dogs on each of days 0-29.
Dogs in the control group are not to receive isoxazoline or any other tick control treatment. Each dog in the treatment group is to be offered its daily ration (dry food) and the individual doses of liquid formulation are to be administered after the individual dog has eaten at least 25% of its total daily ration. After receiving the dose of isoxazoline, the dogs are to be allowed to continue eating. This mimics incorporating the isoxazoline in feed. Each dog in the treatment group and the control group is to be experimentally infested with 50 adult ticks on test days 5, 12, 19, 28 and 35. Comb counts for live and moribund attached ticks are to be conducted on days 7, 14, 21, 30 and 37.
Dogs in the control group are not to receive isoxazoline or any other flea control treatment. Each dog in the treatment group is to be offered its daily ration (dry food) and the individual doses of liquid formulation are to be administered after the individual dog has eaten at least 25% of its total daily ration. After receiving the dose of isoxazoline, the dogs are to be allowed to continue eating. This mimics incorporating the isoxazoline in feed. Each dog in the treatment group and the control group is to be experimentally infested with 100 unfed adult fleas on test days 2, 5, 12, 20 and 35. Comb counts for live adult fleas are to be conducted on days 4, 7, 14, 21 and 37.

[2] = Average plasma concentration of mivorilaner, medicated daily feed (Example 9)
Protocol: Each dog in a treatment group (test groups 2-4) is to receive a medicated daily feed from study days 0-49. The medicated daily feed is to be offered to the dogs for 1 hour on each of days 0-49 according to test groups listed in TABLE 11.

[3] = Plasma concentration of mivorilaner, 0.75 mg/kg daily oral (Examples 4 and 10); details: dog, 0.75 mg/kg/day

SMILES: O=C(CNC(=O)c1sc(C2=NO[C@@](c3cc(Cl)c(F)c(Cl)c3)(C(F)(F)F)C2)c2c1CCC2)NCC(F)F [mivorilaner, 3-[(5S)-5-(3,5-dichloro-4-fluorophenyl)-5-(trifluoromethyl)-4,5-dihydroisoxazol-3-yl]-N-[2-[(2,2-difluoroethyl)amino]-2-oxoethyl]-5,6-dihydro-4H-cyclopenta[c]thiophene-1-carboxamide]
- Mivorilaner Concentration, individual canines ([1]; 0.75 mg/kg/day oral days 0-29, Day 3, 0.75 mg/kg/day): 579 ng/mL and 660 ng/mL and 800 ng/mL and 798 ng/mL and 556 ng/mL and 648 ng/mL
- Mivorilaner Concentration, individual canines ([1]; 0.75 mg/kg/day oral days 0-29, Day 7, 0.75 mg/kg/day): 994 ng/mL and 1470 ng/mL and 1620 ng/mL and 1660 ng/mL and 1330 ng/mL
- Mivorilaner Concentration, individual canines ([1]; 0.75 mg/kg/day oral days 0-29, Day 14, 0.75 mg/kg/day): 1560 ng/mL and 2120 ng/mL and 2370 ng/mL and 2060 ng/mL and 1990 ng/mL and 2530 ng/mL
- Mivorilaner Concentration, individual canines ([1]; 0.75 mg/kg/day oral days 0-29, Day 21, 0.75 mg/kg/day): 2450 ng/mL and 2720 ng/mL and 2950 ng/mL and 2660 ng/mL and 2750 ng/mL and 2820 ng/mL
- Mivorilaner Concentration, individual canines ([1]; 0.75 mg/kg/day oral days 0-29, Day 30, 0.75 mg/kg/day): 2320 ng/mL and 2600 ng/mL and 2790 ng/mL and 2570 ng/mL and 2890 ng/mL
- Mivorilaner Concentration, individual canines ([1]; 0.75 mg/kg/day oral days 0-29, Day 37, 0.75 mg/kg/day): 1880 ng/mL and 2010 ng/mL and 1980 ng/mL and 1750 ng/mL and 2070 ng/mL and 2410 ng/mL
- Mivorilaner Concentration, individual canines ([1]; 0.75 mg/kg/day oral days 0-29, Day −1 (before first dose)): BLQ
- concentration at 30 day ([1]; dog, po, 0.75 mg/kg/day, 0.75 mg/kg/day oral days 0-29, Day 30, read-out: Mivorilaner Concentration, individual canines): 2.89 µg/mL
- average plasma concentration of isoxazoline (mivorilaner) ([2]; Group 2, 106 mg/kg feed (anticipated 1 mg/kg daily), 1 hr): 49.98
- average plasma concentration of isoxazoline (mivorilaner) ([2]; Group 2, 106 mg/kg feed (anticipated 1 mg/kg daily), 3 hr): 292.00
- average plasma concentration of isoxazoline (mivorilaner) ([2]; Group 2, 106 mg/kg feed (anticipated 1 mg/kg daily), 6 hr): 539.00
- average plasma concentration of isoxazoline (mivorilaner) ([2]; Group 2, 106 mg/kg feed (anticipated 1 mg/kg daily), 10 hr): 505.40
- average plasma concentration of isoxazoline (mivorilaner) ([2]; Group 2, 106 mg/kg feed (anticipated 1 mg/kg daily), 24 hr): 458.60
- average plasma concentration of isoxazoline (mivorilaner) ([2]; Group 2, 106 mg/kg feed (anticipated 1 mg/kg daily), 48 hr): 771.83
- average plasma concentration of isoxazoline (mivorilaner) ([2]; Group 2, 106 mg/kg feed (anticipated 1 mg/kg daily), 96 hr): 1570.50
- average plasma concentration of isoxazoline (mivorilaner) ([2]; Group 2, 106 mg/kg feed (anticipated 1 mg/kg daily), 168 hr): 2156.67
- average plasma concentration of isoxazoline (mivorilaner) ([2]; Group 2, 106 mg/kg feed (anticipated 1 mg/kg daily), 240 hr): 3003.33
- average plasma concentration of isoxazoline (mivorilaner) ([2]; Group 2, 106 mg/kg feed (anticipated 1 mg/kg daily), 336 hr): 3290.00
- average plasma concentration of isoxazoline (mivorilaner) ([2]; Group 3, 106 mg/kg feed (anticipated 1 mg/kg daily), 1 hr): 40.41
- average plasma concentration of isoxazoline (mivorilaner) ([2]; Group 3, 106 mg/kg feed (anticipated 1 mg/kg daily), 3 hr): 264.83
- average plasma concentration of isoxazoline (mivorilaner) ([2]; Group 3, 106 mg/kg feed (anticipated 1 mg/kg daily), 6 hr): 467.50
- average plasma concentration of isoxazoline (mivorilaner) ([2]; Group 3, 106 mg/kg feed (anticipated 1 mg/kg daily), 10 hr): 419.17
- average plasma concentration of isoxazoline (mivorilaner) ([2]; Group 3, 106 mg/kg feed (anticipated 1 mg/kg daily), 24 hr): 435.17
- average plasma concentration of isoxazoline (mivorilaner) ([2]; Group 3, 106 mg/kg feed (anticipated 1 mg/kg daily), 48 hr): 781.83
- average plasma concentration of isoxazoline (mivorilaner) ([2]; Group 3, 106 mg/kg feed (anticipated 1 mg/kg daily), 96 hr): 1596.67
- average plasma concentration of isoxazoline (mivorilaner) ([2]; Group 3, 106 mg/kg feed (anticipated 1 mg/kg daily), 168 hr): 2406.67
- average plasma concentration of isoxazoline (mivorilaner) ([2]; Group 3, 106 mg/kg feed (anticipated 1 mg/kg daily), 240 hr): 3026.67
- average plasma concentration of isoxazoline (mivorilaner) ([2]; Group 3, 106 mg/kg feed (anticipated 1 mg/kg daily), 336 hr): 3516.67
- average plasma concentration of isoxazoline (mivorilaner) ([2]; Group 4, 318 mg/kg feed (anticipated 3 mg/kg daily), 1 hr): 143.75
- average plasma concentration of isoxazoline (mivorilaner) ([2]; Group 4, 318 mg/kg feed (anticipated 3 mg/kg daily), 3 hr): 846.50
- average plasma concentration of isoxazoline (mivorilaner) ([2]; Group 4, 318 mg/kg feed (anticipated 3 mg/kg daily), 6 hr): 1265.67
- average plasma concentration of isoxazoline (mivorilaner) ([2]; Group 4, 318 mg/kg feed (anticipated 3 mg/kg daily), 10 hr): 1198.17
- average plasma concentration of isoxazoline (mivorilaner) ([2]; Group 4, 318 mg/kg feed (anticipated 3 mg/kg daily), 24 hr): 1021.17
- average plasma concentration of isoxazoline (mivorilaner) ([2]; Group 4, 318 mg/kg feed (anticipated 3 mg/kg daily), 48 hr): 2011.67
- average plasma concentration of isoxazoline (mivorilaner) ([2]; Group 4, 318 mg/kg feed (anticipated 3 mg/kg daily), 96 hr): 3928.33
- average plasma concentration of isoxazoline (mivorilaner) ([2]; Group 4, 318 mg/kg feed (anticipated 3 mg/kg daily), 168 hr): 6461.67
- average plasma concentration of isoxazoline (mivorilaner) ([2]; Group 4, 318 mg/kg feed (anticipated 3 mg/kg daily), 240 hr): 8696.67
- average plasma concentration of isoxazoline (mivorilaner) ([2]; Group 4, 318 mg/kg feed (anticipated 3 mg/kg daily), 336 hr): 11600.00
- concentration at 3 day ([3]; 0.75 mg/kg/day oral days 0-29, Day 3, read-out: Mivorilaner Concentration, Average of 6 canines): 0.674 µg/mL
- concentration at 3 day ([3]; 0.75 mg/kg/day oral days 0-29, Day 3, read-out: Mivorilaner Concentration, individual canines): 0.648 µg/mL
- concentration at 7 day ([3]; 0.75 mg/kg/day oral days 0-29, Day 7, read-out: Mivorilaner Concentration, Average of 6 canines): 1.45 µg/mL
- concentration at 7 day ([3]; 0.75 mg/kg/day oral days 0-29, Day 7, read-out: Mivorilaner Concentration, individual canines): 1.62 µg/mL
- concentration at 14 day ([3]; 0.75 mg/kg/day oral days 0-29, Day 14, read-out: Mivorilaner Concentration, Average of 6 canines): 2.1 µg/mL
- concentration at 14 day ([3]; 0.75 mg/kg/day oral days 0-29, Day 14, read-out: Mivorilaner Concentration, individual canines): 2.53 µg/mL
- concentration at 21 day ([3]; 0.75 mg/kg/day oral days 0-29, Day 21, read-out: Mivorilaner Concentration, Average of 6 canines): 2.73 µg/mL
- concentration at 21 day ([3]; 0.75 mg/kg/day oral days 0-29, Day 21, read-out: Mivorilaner Concentration, individual canines): 2.82 µg/mL
- concentration at 30 day ([3]; 0.75 mg/kg/day oral days 0-29, Day 30, read-out: Mivorilaner Concentration, Average of 6 canines): 2.63 µg/mL
